Test results: patent US9498476B2, “Crystalline form of 6-[(4S)-2-methyl-4-(2-naphthyl)-1,2,3,4-tetrahydroisoquinolin-7-yl]pyridazin-3-amine” (Bristol-Myers Squibb Company, priority 2008, dated 2016)

Columns and labels:
Format in all cases: physicochemical
[1] = pH-Solubility profile (aqueous solubility)
[2] = Solubility profile (USP definition) in solvents
[3] = Distribution coefficient (Log Do/b); settings: pH 6.5

With `CN1Cc2cc(-c3ccc(N)nn3)ccc2[C@H](c2ccc3ccccc3c2)C1` [Form N-1, 6-[(4S)-1,2,3,4-tetrahydro-2-methyl-4-(2-naphthalenyl)-7-isoquinolinyl]-3-pyridazinamine] the “Aqueous solubility (in words)” value [1] was “high aqueous solubility”, the “Solubility profile (USP definition)” value ([2]; acetone) was “slightly soluble: isopropanol, acetone, ethanol, methanol,” and the “Solubility profile (USP definition)” value ([2]; acetonitrile) was “very slightly soluble: acetonitrile, ethyl acetate,”. The “Solubility profile (USP definition)” value ([2]; dichloromethane) was “slightly soluble: isopropanol, acetone, ethanol, methanol,”, the “Solubility profile (USP definition)” value ([2]; ethanol) was “slightly soluble: isopropanol, acetone, ethanol, methanol,” and the “Solubility profile (USP definition)” value ([2]; ethyl acetate) was “very slightly soluble: acetonitrile, ethyl acetate,”. The “Solubility profile (USP definition)” value ([2]; isopropanol) was “slightly soluble: isopropanol, acetone, ethanol, methanol,”, the “Solubility profile (USP definition)” value ([2]; methanol) was “slightly soluble: isopropanol, acetone, ethanol, methanol,” and the “Solubility profile (USP definition)” value ([2]; n-butanol) was “very slightly soluble: acetonitrile, ethyl acetate,”. The “Solubility profile (USP definition)” value ([2]; propylene glycol) was “slightly soluble: isopropanol, acetone, ethanol, methanol,” and the “Distribution coefficient Log Do/b” value [3] was 3.10.
